Experimental data as given in ChEMBL document CHEMBL1148997, “Stereochemical considerations in relation to the pharmacological activity of Pterotaberna alkaloids” (J Nat Prod, 1985).
Activity calls are given as the source filed them. The calls are words filed in the database; no cut-off is given here.

Tests used:
Ileum [1] = test: Antihistaminic effect in guinea pig ileum assessed as inhibition of histamine-induced contraction by Schild plot; format: functional, tissue-based; details: Cavia porcellus, read-out: pA2 (converted)
Ileum [2] = test: Anticholinergic effect in guinea pig ileum assessed as inhibition of acetylcholine-induced contraction; format: functional
Ileum [3] = test: Inhibition of electrically-induced twitch contraction in guinea pig ileum at 3.4 uM; format: functional, tissue-based; details: Cavia porcellus
Ileum [4] = test: Inhibition of electrically-induced twitch contraction in guinea pig ileum at 1 ug/ml after 15 mins; format: functional; details: Cavia porcellus, 0.25 h
Ileum [5] = test: Inhibition of electrically-induced twitch contraction in guinea pig ileum at 3.2 uM; format: functional, tissue-based; details: Cavia porcellus
Intestine = test: Anticholinergic effect in rat intestine assessed as inhibition of acetylcholine-induced contraction; format: functional, tissue-based; details: read-out: pA2 (converted)
Ileum [6] = test: Antihistaminic effect in guinea pig ileum assessed as inhibition of histamine-induced contraction; format: functional, Cavia porcellus
Ileum [7] = test: Anticholinergic effect in guinea pig ileum assessed as inhibition of acetylcholine-induced contraction at 1 uM; format: functional, tissue-based; details: Cavia porcellus
Ileum [8] = test: Anticholinergic effect in guinea pig ileum assessed as inhibition of acetylcholine-induced contraction at 3.4 uM; format: functional, tissue-based; details: Cavia porcellus
Ileum [9] = test: Inhibition of electrically-induced twitch contraction in guinea pig ileum at 1 uM; format: functional, tissue-based; details: Cavia porcellus
Ileum [10] = test: Inhibition of electrically-induced twitch contraction in guinea pig ileum at 3.4 uM preincubated for 15 mins before addition of naloxone in presence of naloxone; format: functional, tissue-based; details: Cavia porcellus
Ileum [11] = test: Antihistaminic effect in guinea pig ileum assessed as inhibition of histamine-induced contraction at 34 uM; format: functional, tissue-based; details: Cavia porcellus

For `C/C=C1/CN(C)C[C@@H]2Cc3c([nH]c4ccccc34)C(=O)C[C@@H]12`, the Kb (Ileum [1]) was 0.282 µM, the Activity (Ileum [2]; Cavia porcellus) was “inactive” and the Activity (Ileum [3]) was “Active”. The inhibition at 1 µg/mL (Ileum [4]) was 20%.

`C/C=C1/CN(C)C[C@H]2C(=O)c3c([nH]c4ccccc34)C(=O)C[C@@H]12` was tested, and the Activity (Ileum [5]) was “inactive”.

`COc1ccc(Cc2nccc3cc(OC)c(OC)cc23)cc1OC` [PAPAVERINE] gave a pD2 (Ileum [2]) of 5.08 and a Kb (Intestine) of 15.8 µM.

For `C/C=C1/CN(C)C[C@H]2Cc3c([nH]c4ccccc34)C(=O)C[C@@H]12` [METHUENINE], the pD2 (Ileum [6]) was 5.13, the Activity (Ileum [7]) was “Active” and the Activity (Ileum [8]) was “Active”. The pD2 (Ileum [2]) was 5.1, the Activity (Ileum [9]) was “Active” and the Activity (Ileum [3]) was “Active”. For the same molecule, the Activity (Ileum [10]) was “Active” and the Activity (Ileum [11]) was “Active”.

With `C/C=C1/C[N+](C)([O-])C[C@H]2Cc3c([nH]c4ccccc34)C(=O)C[C@@H]12` (stereo partly specified) the Activity (Ileum [5]) was “inactive”.
